Measured values from PMC10143232, “Dihydropyrimidone Derivatives as Thymidine Phosphorylase Inhibitors: Inhibition Kinetics, Cytotoxicity, and Molecular Docking” (Molecules, 2023).
“Also recorded” adds a separate entry of the source.

Legend:
[1] = biological target: T1, Thymidine phosphorylase (TP) (Escherichia coli, UniProt P07650); test: Mechanistic (kinetic) studies of TP inhibition; format: biochemical; settings: E. coli TP; for Type of Inhibition: Lineweaver–Burk, Dixon plots; for Ki: inhibitor 200–500 µM, thymidine 0.1875–1.5 mM, read-out: Ki ± SEM
T1 construct: purchased Sigma Aldrich, USA
T1 sequence (P07650 whole entry): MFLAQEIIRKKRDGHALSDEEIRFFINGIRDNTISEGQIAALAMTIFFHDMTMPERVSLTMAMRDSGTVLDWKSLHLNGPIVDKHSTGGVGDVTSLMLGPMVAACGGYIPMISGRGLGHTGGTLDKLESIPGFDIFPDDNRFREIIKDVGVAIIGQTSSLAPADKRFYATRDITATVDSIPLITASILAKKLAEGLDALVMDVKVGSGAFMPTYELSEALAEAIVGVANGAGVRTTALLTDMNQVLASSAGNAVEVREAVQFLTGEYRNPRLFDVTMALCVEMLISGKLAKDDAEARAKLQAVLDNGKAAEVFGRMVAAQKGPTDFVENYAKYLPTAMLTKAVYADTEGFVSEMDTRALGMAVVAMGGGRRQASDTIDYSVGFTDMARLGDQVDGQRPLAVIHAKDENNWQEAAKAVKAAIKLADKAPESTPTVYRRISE
From the text: Kinetic studies are used for the investigation of chemical reactions in terms of their reaction rates, reaction mechanisms, and the factors that affect these parameters. Herein, it is used determine the type/mechanism of inhibition of dihydropyrimidone derivatives.
(§1) EZ-FIT, enzyme kinetics software (Perrella Scientific, Inc., Amherst, GA, USA) was used to calculate the IC50 values. In order to analyse the kinetic parameter, Grafit version 7.0 (Erithacus Software Ltd., Horley, UK) was used.

[2] = MTT cytotoxicity assay; format: cell-based; settings: 3T3 mouse fibroblast cells, 48 h, test compounds 1 to 30 µM, NC: non-cytotoxic, read-out: Cytotoxicity Studies Cell Viability (%)
Experimental: (§2) Cytotoxicity of active compounds were evaluated employing a standard MTT calorimetric assay. Mouse fibroblast (3T3 cell line) acquired from American Type Culture Collection (ATCC), Virginia, USA, was cultured in DMEM (Dulbecco’s modified eagle medium). In total, 5% FBS (fetal bovine serum), penicillin (100 IU/mL), and streptomycin ([…]) were then added to the medium in […] flasks, and kept in a CO2 incubator at 37 °C. The harvested cell was then diluted with a specific medium. Haemocytometer was used for the quantification of cells. After that, the culture of cell having concentration of 5x104 (cells/mL) was prepared, inoculated into 96-well plates (100 µL/well), and then incubated overnight. After incubation, the old medium was removed, and fresh medium (200 µL) was added. Then different concentrations of test compounds (ranging from 1 to 30 µM) were added. After incubation of 48 h, each well received 200 µL of MTT dye (0.5 mg/mL), and further incubated for a duration of 4 h. After 4 h, 100 µL of DMSO was introduced into each well of the 96-well plate. The reduction of MTT to formazan was measured by recording absorbance at 540 nm with the help of a microplate reader (SpectraMax 384, Molecular Devices, San Jose, CA, USA).

[3] = test system: 3T3 (mouse fibroblast) cell line; test: MTT cytotoxicity assay; format: cell-based
Experimental: as §2

[4] = biological target: T1, Thymidine phosphorylase (TP); test: Thymidine phosphorylase inhibition assay (spectrophotometric, 290 nm); format: biochemical, E. coli; settings: for IC50: E. coli TP, n = 3, NA: not active, read-out: Thymidine Phosphorylase Inhibitory Activity IC50 ± SEM; for inhibition at 500 µM: pH 7, E. coli TP, test compound 10 µL of 0.5 mM in 200 µL, thymidine substrate, 30 °C, pH 7.0, read-out: Thymidine Phosphorylase Inhibitory Activity % Inhibition
Experimental: Thymidine phosphorylase (source: E. coli, EC Number 2.4.2.4), thymidine (substrate), and potassium phosphate monobasic (as buffer) were acquired from Sigma Aldrich, USA. […] Dimethylsulfoxide (DMSO), used as a solvent, was obtained from Fisher Scientific, Schwerte, Germany.
Reaction was performed in 96-well plates and in triplicates. The 200 µL reaction mixture was comprised of 10 µL of the test compound (0.5 mM; dissolved in DMSO), 150 µL of potassium phosphate buffer (pH 7.0, 50 mM), and 20 µL of TP enzyme (0.058 unit/well). The 96-well plate containing all these reagents was then incubated at 30 °C for 10 min.
SoftMax Pro 4.8 software (Molecular Devices, San Jose, CA, USA) was used to analyse the results.
as §1

[5] = test system: E. coli TP; design: method as in earlier work; settings: read-out: 50% inhibitory concentration (IC50); purified E. coli TP; conversion of dThd to Thy; ref [5]; cited from earlier work

## COC(=O)C1=C(C)NC(=O)NC1c1ccc(C(F)(F)F)cc1 (stereo not drawn) [Compound 33, Methyl 6-methyl-2-oxo-4-(4-(trifluoromethyl)phenyl)-1,2,3,4-tetrahydropyrimidine-5-carboxylate]
[1]
  Type of Inhibition: Non-Competitive
  Ki: 311.4 ± 0.004 µM
[2]
  viability at 48 h: 61%
[3]
  Cytotoxicity against 3T3 cells (in words): non-cytotoxic; also recorded: non-toxic
[4]
  IC50: 322.6 ± 1.6 µM
  inhibition at 500 µM: 73.6%

## O=c1[nH]c(=O)c2cc[nH]c2[nH]1 [7-Deazaxanthine, reference compound]
[1]
  Type of Inhibition: Non-Competitive
[4]
  inhibition at 500 µM: 82%

## Oc1ncnc2c1ncn2[C@@H]1O[C@H](COC(c2ccccc2)(c2ccccc2)c2ccccc2)[C@@H](O)[C@H]1O [KIN59, 5′-O-tritylinosine]
[5]
  IC50: 44 ± 3 µM

## COC(=O)C1=C(C)NC(=O)NC1c1cccc(OC)c1OC (stereo not drawn) [Compound 20, Methyl 4-(2,3-dimethoxyphenyl)-6-methyl-2-oxo-1,2,3,4-tetrahydropyrimidine-5-carboxylate]
[2]
  viability at 48 h: 62%
[4]
  IC50: 414.7 ± 1.6 µM
  inhibition at 500 µM: 67.8%

## COC(=O)C1=C(C)NC(=O)NC1c1cc(Br)c(OC)c(OC)c1 (stereo not drawn) [Compound 22, Methyl 4-(3-bromo-4,5-dimethoxyphenyl)-6-methyl-2-oxo-1,2,3,4-tetrahydropyrimidine-5-carboxylate]
[2]
  viability at 48 h: 76%
[4]
  IC50: 394 ± 4.3 µM
  inhibition at 500 µM: 61.9%

## COC(=O)C1=C(C)NC(=O)NC1c1ccccc1 (stereo not drawn) [Compound 1, Methyl 6-methyl-2-oxo-4-phenyl-1,2,3,4-tetrahydropyrimidine-5-carboxylate]
[1]
  Type of Inhibition: Non-Competitive
  Ki: 326.3 ± 0.002 µM
[2]
  viability at 48 h: 57%
[3]
  Cytotoxicity against 3T3 cells (in words): non-cytotoxic; also recorded: non-toxic
[4]
  IC50: 314.3 ± 0.9 µM
  inhibition at 500 µM: 84%

## COC(=O)C1=C(C)NC(=O)NC1c1ccc(Cl)cc1 (stereo not drawn) [Compound 34, Methyl 4-(4-chlorophenyl)-6-methyl-2-oxo-1,2,3,4-tetrahydropyrimidine-5-carboxylate]
[2]
  viability at 48 h: 72%
[4]
  IC50: 443.9 ± 0.9 µM
  inhibition at 500 µM: 66.3%

## COC(=O)C1=C(C)NC(=O)NC1c1ccco1 (stereo not drawn) [Compound 9, Methyl 4-(furan-2-yl)-6-methyl-2-oxo-1,2,3,4-tetrahydropyrimidine-5-carboxylate]
[2]
  viability at 48 h: 72%
[4]
  IC50: 373.6 ± 2.2 µM
  inhibition at 500 µM: 78.9%

## COC(=O)C1=C(C)NC(=O)NC1CC(C)C (stereo not drawn) [Compound 21, Methyl 4-isobutyl-6-methyl-2-oxo-1,2,3,4-tetrahydropyrimidine-5-carboxylate]
[2]
  viability at 48 h: 55%
[4]
  IC50: 345.4 ± 0.5 µM
  inhibition at 500 µM: 90.7%

## COC(=O)C1=C(C)NC(=O)NC1c1ccc(C)o1 (stereo not drawn) [Compound 11, Methyl 6-methyl-4-(5-methylfuran-2-yl)-2-oxo-1,2,3,4-tetrahydropyrimidine-5-carboxylate]
[2]
  viability at 48 h: 77%
[4]
  IC50: 386 ± 0.6 µM
  inhibition at 500 µM: 76.9%

## COC(=O)C1=C(C)NC(=O)NC1c1ccc(OC)cc1 (stereo not drawn) [Compound 5, Methyl 4-(4-methoxyphenyl)-6-methyl-2-oxo-1,2,3,4-tetrahydropyrimidine-5-carboxylate]
[2]
  viability at 48 h: 72%
[4]
  IC50: 387.4 ± 2 µM
  inhibition at 500 µM: 52.9%

## COC(=O)C1=C(C)NC(=O)NC1c1ccc(OC)cc1F (stereo not drawn) [Compound 14, Methyl 4-(2-fluoro-4-methoxyphenyl)-6-methyl-2-oxo-1,2,3,4-tetrahydropyrimidine-5-carboxylate]
[2]
  viability at 48 h: 71%
[4]
  IC50: 397.1 ± 0.1 µM
  inhibition at 500 µM: 68.4%

## COC(=O)C1=C(C)NC(=O)NC1c1ccc([N+](=O)[O-])cc1 (stereo not drawn) [Compound 12, Methyl 6-methyl-4-(4-nitrophenyl)-2-oxo-1,2,3,4-tetrahydropyrimidine-5-carboxylate]
[1]
  Type of Inhibition: Non-Competitive
  Ki: 297.6 ± 0.006 µM
[2]
  viability at 48 h: 57%
[3]
  Cytotoxicity against 3T3 cells (in words): non-cytotoxic; also recorded: non-toxic
[4]
  IC50: 303.5 ± 0.4 µM
  inhibition at 500 µM: 91.5%
